Assay results: ChEMBL document CHEMBL5214920, “Emerging impact of triazoles as anti-tubercular agent” (Eur J Med Chem, 2022)
Converted amounts (≈) assume the structure as drawn.

What follows are compounds tested on Mycobacterium tuberculosis (assay: Antitubercular activity against multi-drug-resistant Mycobacterium tuberculosis assessed as bacterial growth inhibition measured after 7 days by direct susceptibility assay). Conditions: 168 h, time 7 day.
Assay type: functional

Row | SMILES | MIC
1 | COc1c(N2CCNCC2)c(F)cc2c(=O)c(C(=O)O)cn(C3CC3)c12 | 2 µg/mL (≈ 5.53 µM)
2 | O=C(O)c1cn(C2CC2)c2cc(N3CCN(Cc4cn(CCN5C(=O)Cc6ccccc65)nn4)CC3)c(F)cc2c1=O | 0.25 µg/mL (≈ 0.437 µM)
3 | CO/N=C1/C(=O)C(CCOCCOCCOCCn2cc(CN3C(=O)/C(=N/OC)c4cc(F)ccc43)nn2)c2ccccc21 (configuration not stated) | 64 µg/mL (≈ 105 µM)
4 | O=C(O)c1cn(C2CC2)c2cc(N3CCNCC3)c(F)cc2c1=O [CIPROFLOXACIN] | 4 µg/mL (≈ 12.1 µM)
5 | NNC(=O)c1ccncc1 [ISONIAZID] | 512 µg/mL (≈ 3730 µM)
6 | CO[C@H]1/C=C/O[C@@]2(C)Oc3c(C)c(O)c4c(O)c(c(/C=N/N5CCN(C)CC5)c(O)c4c3C2=O)NC(=O)/C(C)=C\C=C\[C@H](C)[C@H](O)[C@@H](C)[C@@H](O)[C@@H](C)[C@H](OC(C)=O)[C@@H]1C [RIFAMPIN] | 64 µg/mL (≈ 77.8 µM)

What follows are compounds tested on Mycobacterium tuberculosis (assay: Potency index, ratio of isoniazid MIC to test compound MIC for antitubercular activity against multi-drug-resistant Mycobacterium tuberculosis). Conditions: not given.
Assay type: functional

Row | SMILES | Ratio
7 | CO/N=C1/C(=O)C(CCOCCOCCOCCn2cc(CN3C(=O)/C(=N/OC)c4cc(F)ccc43)nn2)c2ccccc21 (configuration not stated) | 8
